From the NIST ThermoML archive (doi:10.1016/j.jct.2016.07.047)

Test: mn = molality of the nth substance listed, in mol/kg
Settings: Liquid; for viscosity: Falling or rolling sphere viscometry; for electrical conductivity: Frequency=0.0003 MHz, Alternating current cell with electrodes; for mass density: Vibrating tube method

NCC(=O)O [2-aminoacetic acid] + O
87 kPa
Settings	electrical conductivity, m1 = 0.1 [S/m]	electrical conductivity, m1 = 0.3 [S/m]	electrical conductivity, m1 = 0.5 [S/m]	mass density, m1 = 0.1 [kg/m3]	mass density, m1 = 0.3 [kg/m3]	mass density, m1 = 0.5 [kg/m3]	viscosity, m1 = 0.1 [mPa·s]	viscosity, m1 = 0.3 [mPa·s]	viscosity, m1 = 0.5 [mPa·s]
288.15 K	0.000925	0.00227	0.00355	1002.42	1008.66	1014.9	1.144	1.176	1.208
298.15 K	0.000963	0.00239	0.00381	1000.23	1006.29	1012.35	0.924	0.95	0.984
308.15 K	0.00101	0.00253	0.0041	–	1003.23	1009.25	0.729	0.749	0.77
318.15 K	0.00106	0.00269	0.00445	993.28	999.24	1005.2	0.613	0.638	0.662

C[C@H](N)C(=O)O [(S)-2-aminopropanoic acid] + O
Settings	electrical conductivity, m1 = 0.1 [S/m]	electrical conductivity, m1 = 0.3 [S/m]	electrical conductivity, m1 = 0.5 [S/m]	mass density, m1 = 0.1 [kg/m3]	mass density, m1 = 0.3 [kg/m3]	mass density, m1 = 0.5 [kg/m3]	viscosity, m1 = 0.1 [mPa·s]	viscosity, m1 = 0.3 [mPa·s]	viscosity, m1 = 0.5 [mPa·s]
288.15 K, 87 kPa	0.000237	0.000567	0.000861	–	–	–	–	–	–
288.15 K, 100 kPa	–	–	–	1002.1	1007.7	1013.3	1.16	1.223	1.286
298.15 K, 87 kPa	0.000293	0.000659	0.000968	–	–	–	–	–	–
298.15 K, 100 kPa	–	–	–	999.97	1005.51	1011.05	0.91	0.955	1.001
308.15 K, 87 kPa	0.000357	0.000783	0.00117	–	–	–	–	–	–
308.15 K, 100 kPa	–	–	–	996.94	1002.42	1007.9	0.738	0.774	0.809
318.15 K, 87 kPa	0.000441	0.000946	0.00141	–	–	–	–	–	–
318.15 K, 100 kPa	–	–	–	993.09	998.47	1003.85	0.613	0.649	0.685
